Test [1] has as its system S. aureus Human ATCC 25923. Description: MIC determination, S. aureus human ATCC 25923. The format is cell-based. The conditions noted are these: Staphylococcus aureus, ATCC25923; Gram-positive; Mueller-Hinton medium, 24 h at 37° C. In a few lines:
(§1)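 Broth microdilution in Mueller-Hinton medium; compounds from 5 mg/mL stock in DMSO/methanol (50/50), twofold serial dilutions, inoculum adjusted to OD 0.01. Plates incubated 24 h at 37 °C, humid atmosphere; OD read at 620 nm to derive MIC, duplicates.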

Another test deals with S. aureus Animal (340). Description: MIC determination, S. aureus animal (340). The following applies: Staphylococcus aureus; Gram-positive; Mueller-Hinton medium, 24 h at 37° C. The format is cell-based. The essentials: as §1
Test [2] concerns S. intermedius Animal (1051997). The test is described as follows: MIC determination, S. intermedius animal (1051997). The conditions noted are these: Staphylococcus intermedius; Gram-positive; Mueller-Hinton medium, 24 h at 37° C. The format is cell-based. In a few lines:
as §1

The test system of test [3] is E. faecalis Human ATCC 29212. The test is described as follows: MIC determination, E. faecalis human ATCC 29212. The format is cell-based. The following applies: Enterococcus faecalis, ATCC29212; Gram-positive; Mueller-Hinton medium, 24 h at 37° C. The essentials: as §1
For a further test, the system named is E. coli Human ATCC 28922. The test is described as follows: MIC determination, E. coli human ATCC 28922. The format is cell-based. The following applies: Escherichia coli, ATCC28922; Gram-negative; Mueller-Hinton medium, 24 h at 37° C. In a few lines: as §1
For the next test, the system named is E. coli Animal (1956). The test is described as follows: MIC determination, E. coli animal (1956). The conditions noted are these: Escherichia coli; Gram-negative; Mueller-Hinton medium, 24 h at 37° C. It is filed as cell-based. In a few lines:
as §1

For test [4], the system named is P. aeruginosa Human ATCC 27853. The test is described as follows: MIC determination, P. aeruginosa human ATCC 27853. The format is cell-based. The following applies: Pseudomonas aeruginosa, ATCC27853; Gram-negative; Mueller-Hinton medium, 24 h at 37° C. The essentials: as §1
The test system of test [5] is P. aeruginosa Animal (1051575). The test is described as follows: MIC determination, P. aeruginosa animal (1051575). The format is cell-based. The conditions noted are these: Pseudomonas aeruginosa; Gram-negative; Mueller-Hinton medium, 24 h at 37° C. The essentials: as §1
For another test, the system named is CHO-K1 cells. Description: WST1 cytotoxicity test on CHO-K1 cells. It is filed as cell-based, Chinese hamster. The following applies: Cricetulus griseus. In a few lines: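 CHO-K1 cells pre-grown 24 h, then exposed to increasing compound concentrations in duplicate for 24 h at 37° C, 5% CO2. Viability read after 20 min with 10% WST-1 in PBS at 450 nm; IC50 from nonlinear regression as concentration cutting viability 50%.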

The next test relates to P. aeruginosa (1051575). The test is described as follows: Potentiation of doxycycline activity (combination MIC). It is filed as cell-based, Pseudomonas aeruginosa. The conditions noted are these: in presence of doxycycline 2 μg/mL; 24 hours at 37° C.
The test system of the next test is C. albicans. The test is described as follows: Antifungal activity, cascade microdilution. The format is cell-based. The following applies: Candida albicans, 24 h, read-out: IC50 (μg/mL) C. albicans.
Where [6] appears, read: CHO-K1, 24 h, read-out: IC50 (μg/mL) CHO.
Setting [7] is: CHO-K1, read-out: IC50 (μg/mL) CHO.

Converted amounts (≈) assume the structure as drawn. Where two headings read alike, the source gives them in different places.

Regarding `CC(C)NC(=O)CC[C@@H](C)[C@H]1CCC2C3C(C[C@H](O)[C@@]21C)[C@@]1(C)CC[C@H](NCCCNCCCNCCCN)CC1C[C@H]3O` (stereo partly drawn) [(4), 3β-norspermino-N-isopropylcholamide], the minimal inhibitory concentration (MIC) in [1] came to 8 µg/mL (≈ 12.9 µM); against S. aureus Animal (340), 16 µg/mL (≈ 25.8 µM); in test [2], 4 µg/mL (≈ 6.45 µM); in test [3] it was 32 µg/mL (≈ 51.6 µM); in the test with E. coli Human ATCC 28922 it was 16 µg/mL (≈ 25.8 µM); in the test on E. coli Animal (1956), 32 µg/mL (≈ 51.6 µM). The figures for the MIC in [4] and in test [5] were 64 µg/mL (≈ 103 µM) and 32 µg/mL (≈ 51.6 µM), respectively. Besides, the IC50 with CHO-K1 cells (setting [6]) was 65 µg/mL (≈ 105 µM); in the test with CHO-K1 cells (setting [7]), 170 µg/mL (≈ 274 µM); in the test with C. albicans, 8 µg/mL (≈ 12.9 µM). The “MIC - P. aeruginosa (1051575): content of compound of formula (I) to restore the doxycycline activity (at 2 μg/mL)” value (from here on “MIC - P. aeruginosa (1051575): content”) with P. aeruginosa (1051575) is 1 µg/mL.
As for `CNC(=O)CC[C@@H](C)[C@H]1CCC2C3C(CC[C@@]21C)[C@@]1(C)CC[C@H](NCCCNCCCN)CC1C[C@H]3O` (stereo partly drawn) [(11), 3β-norspermidino-N-methylchenodeoxycholamide], the MIC in [1] was found to be 6 µg/mL (≈ 11.6 µM); against S. aureus Animal (340) it was 3 µg/mL (≈ 5.78 µM); in test [2], 1 µg/mL (≈ 1.93 µM); in test [3] it was 13 µg/mL (≈ 25.1 µM); in the test on E. coli Human ATCC 28922, 13 µg/mL (≈ 25.1 µM); in the test with E. coli Animal (1956), 13 µg/mL (≈ 25.1 µM). The values for the MIC in test [4] and in [5] were 12 µg/mL (≈ 23.1 µM) and 6 µg/mL (≈ 11.6 µM), respectively. The IC50 with CHO-K1 cells (setting [6]) was 20 µg/mL (≈ 38.5 µM); with CHO-K1 cells (setting [7]), 20 µg/mL (≈ 38.5 µM); in the test with C. albicans, 3 µg/mL (≈ 5.78 µM). The “MIC - P. aeruginosa (1051575): content” value with P. aeruginosa (1051575) amounted to 2 µg/mL.
On to `CC(C)NC(=O)CC[C@@H](C)[C@H]1CCC2C3CCC4C[C@@H](NCCCN5CCN(CCCN)CC5)CC[C@]4(C)C3CC[C@@]21C` (stereo partly drawn) [(19), 3β-(1,4-bis(3-aminopropyl)piperazine)-N-isopropyllithocholamide], for which the minimum inhibitory concentration (MIC) in test [1] stood at 8 µg/mL (≈ 13.3 µM); with S. aureus Animal (340), 4 µg/mL (≈ 6.67 µM); in test [2] it was 4 µg/mL (≈ 6.67 µM); in test [3], 15 µg/mL (≈ 25 µM); against E. coli Human ATCC 28922 it was 30 µg/mL (≈ 50 µM); against E. coli Animal (1956), 30 µg/mL (≈ 50 µM). Also, the MIC is 120 µg/mL (≈ 200 µM) in test [4] and 30 µg/mL (≈ 50 µM) in test [5]. The IC50 with CHO-K1 cells (setting [6]) is 12 µg/mL (≈ 20 µM); in the test with CHO-K1 cells (setting [7]) it was 12 µg/mL (≈ 20 µM); with C. albicans, 4 µg/mL (≈ 6.67 µM). The “MIC - P. aeruginosa (1051575): content” value with P. aeruginosa (1051575) is 8 µg/mL.
For `CC(C)N(C(=O)CC[C@@H](C)[C@H]1CCC2C3C(CC[C@@]21C)[C@@]1(C)CC[C@H](NCCCNCCCNCCCN)CC1C[C@H]3O)C(C)C` (stereo partly drawn) [(40), 3β-norspermino-N,N-diisopropylchenodeoxycholamide], the MIC in test [1] is 4 µg/mL (≈ 6.19 µM); against S. aureus Animal (340), 2 µg/mL (≈ 3.1 µM); in test [2], 2 µg/mL (≈ 3.1 µM); in test [3] it was 2 µg/mL (≈ 3.1 µM); with E. coli Human ATCC 28922, 32 µg/mL (≈ 49.5 µM); in the test on E. coli Animal (1956), 8 µg/mL (≈ 12.4 µM). Further, the minimal inhibitory concentration (MIC) in test [4] and in [5] was 8 µg/mL (≈ 12.4 µM) in each case. For the same compound, in the test with P. aeruginosa (1051575), the “MIC - P. aeruginosa (1051575): content” value was 2 µg/mL. Moreover, in the test on C. albicans, the IC50 was determined as 1 µg/mL (≈ 1.55 µM).
For `CC(C)NC(=O)CC[C@@H](C)[C@H]1CCC2C3C(CC[C@@]21C)[C@@]1(C)CC[C@H](NCCCN(CCCN)CCCN)CC1C[C@H]3O` (stereo partly drawn) [(46), 3β-(tris(3-aminopropyl)amine)-N-isopropylchenodeoxycholamide], the MIC in test [1] is 8 µg/mL (≈ 13.2 µM); in the test on S. aureus Animal (340) it was 2 µg/mL (≈ 3.31 µM); in [2], 2 µg/mL (≈ 3.31 µM); in [3], 30 µg/mL (≈ 49.7 µM); with E. coli Human ATCC 28922, more than 120 µg/mL; in the test with E. coli Animal (1956), 30 µg/mL (≈ 49.7 µM). The MIC in test [4] was determined as 60 µg/mL (≈ 99.3 µM); in test [5], 120 µg/mL (≈ 199 µM). For the same compound, the IC50 in the test with CHO-K1 cells (setting [6]) turned out to be 50 µg/mL (≈ 82.8 µM); in the test with CHO-K1 cells (setting [7]), 50 µg/mL (≈ 82.8 µM); with C. albicans, 1 µg/mL (≈ 1.66 µM). In the test on P. aeruginosa (1051575), the “MIC - P. aeruginosa (1051575): content” value is 2 µg/mL.

The values above are taken from US10780101B2, “Amide derivatives of squalamine for the treatment of infections” (VIRBAC, priority 2016, dated 2020).
